Assay: Electrophysiology Assays: Patch clamp electrophysiology was used to assess the efficacy and selectivity of sodium channel blockers in dorsal root ganglion neurons. Rat neurons were isolated from the dorsal root ganglions and maintained in culture for 2 to 10 days in the presence of NGF (50 ng/ml) (culture media consisted of NeurobasalA supplemented with B27, glutamine and antibiotics). Small diameter neurons (nociceptors, 8-12 μm in diameter) were visually identified and probed with fine tip glass electrodes connected to an amplifier (Axon Instruments). The voltage clamp mode was used to assess the compound's IC50 holding the cells at −60 mV. In addition, the current clamp mode was employed to test the efficacy of the compounds in blocking action potential generation in response to current injections. The results of these experiments contributed to the definition of the efficacy profile of the compounds.
`O=C(O)c1ccc(NC(=O)c2cc3ccccc3nc2Oc2ccccc2OC(F)F)cc1` gave an IC50 of 975 nM. `O=C(O)c1ccc(NC(=O)c2cc3ccccc3nc2Oc2ccc(F)cc2Cl)cn1` showed an IC50 of 96 nM. In the case of `Cc1cc(F)ccc1Oc1nc2ccccc2cc1C(=O)Nc1ccc(C(=O)O)cc1`, the IC50 is reported as 315 nM. `O=C(O)c1ccc(NC(=O)c2cc3ccccc3nc2Oc2ccc(F)cc2F)cc1` showed an IC50 of 275 nM. `O=C(O)c1ccc(NC(=O)c2cc3ccccc3nc2Oc2ccc(F)cc2F)cn1` showed an IC50 of 255 nM. `COc1ccc(Oc2nc3ccccc3cc2C(=O)Nc2ccc(C(=O)O)cc2)c(OC)c1` showed an IC50 of 550 nM. Molecule `NS(=O)(=O)c1cccc(NC(=O)c2cc3ccccc3nc2Oc2ccccc2OC(F)F)c1` has an IC50 of 24 nM. `COc1cc(F)ccc1Oc1nc2ccccc2nc1C(=O)Nc1nnn[nH]1` showed an IC50 of 2200 nM.

Reference: ChEMBL document CHEMBL5726462, “Substituted quinolines as modulators of sodium channels” (2017)
